We go through six compounds from ChEMBL document CHEMBL5724914, “Linking interpersonal differences in gut microbiota composition and drug biotransformation activity” (2024).

Series [1] in a line: The drug is tested on Z-026 corresponding to metagenome with ENA study accession number: PRJEB37062 and ENA sample accession number: ERS12561825 for biotransformation under anaerobic condition. The drug concentrations were measured over 9 timepoints collected between 0 and 24 hours of incubation by liquid-chromatography-coupled mass spectrometry (LC–MS). As to conditions: 2 µM.

Series [2] in a line: The drug is tested on Z-014 corresponding to rat gut metagenome with ENA study accession number: PRJEB37062 and ENA sample accession number: ERS12561814 for biotransformation under anaerobic condition. The drug concentrations were measured over 9 timepoints collected between 0 and 24 hours of incubation by liquid-chromatography-coupled mass spectrometry (LC–MS). As to conditions: 2 µM.

The nature of series [3]: The drug is tested on Z-012 corresponding to metagenome with ENA study accession number: PRJEB37062 and ENA sample accession number: ERS12561812 for biotransformation under anaerobic condition. The drug concentrations were measured over 9 timepoints collected between 0 and 24 hours of incubation by liquid-chromatography-coupled mass spectrometry (LC–MS). As to conditions: 2 µM.

Series [4] in a line: The drug is tested on Z-010 corresponding to metagenome with ENA study accession number: PRJEB37062 and ENA sample accession number: ERS12561810 for biotransformation under anaerobic condition. The drug concentrations were measured over 9 timepoints collected between 0 and 24 hours of incubation by liquid-chromatography-coupled mass spectrometry (LC–MS). Particulars: 2 µM.
The nature of series [5]: The drug is tested on Z-008 corresponding to metagenome with ENA study accession number: PRJEB37062 and ENA sample accession number: ERS12561808 for biotransformation under anaerobic condition. The drug concentrations were measured over 9 timepoints collected between 0 and 24 hours of incubation by liquid-chromatography-coupled mass spectrometry (LC–MS). As to conditions: 2 µM.

Series [6] is described as follows: The drug is tested on Z-006 corresponding to mouse gut metagenome with ENA study accession number: PRJEB37062 and ENA sample accession number: ERS12561806 for biotransformation under anaerobic condition. The drug concentrations were measured over 9 timepoints collected between 0 and 24 hours of incubation by liquid-chromatography-coupled mass spectrometry (LC–MS). Particulars: 2 µM.

The nature of series [7]: The drug is tested on Z-003 corresponding to pig gut metagenome with ENA study accession number: PRJEB37062 and ENA sample accession number: ERS12561803 for biotransformation under anaerobic condition. The drug concentrations were measured over 9 timepoints collected between 0 and 24 hours of incubation by liquid-chromatography-coupled mass spectrometry (LC–MS). Particulars: 2 µM.

Series [8] can be described thus: The drug is tested on WLS-310 corresponding to human gut metagenome with ENA study accession number: PRJEB37062 and ENA sample accession number: ERS12561785 for biotransformation under anaerobic condition. The drug concentrations were measured over 9 timepoints collected between 0 and 24 hours of incubation by liquid-chromatography-coupled mass spectrometry (LC–MS). Particulars: 2 µM.

The nature of series [9]: The drug is tested on WLS-098 corresponding to human gut metagenome with ENA study accession number: PRJEB37062 and ENA sample accession number: ERS12561754 for biotransformation under anaerobic condition. The drug concentrations were measured over 9 timepoints collected between 0 and 24 hours of incubation by liquid-chromatography-coupled mass spectrometry (LC–MS). Particulars: 2 µM.

Series [10] is described as follows: The drug is tested on WLS-077 corresponding to human gut metagenome with ENA study accession number: PRJEB37062 and ENA sample accession number: ERS12561750 for biotransformation under anaerobic condition. The drug concentrations were measured over 9 timepoints collected between 0 and 24 hours of incubation by liquid-chromatography-coupled mass spectrometry (LC–MS). As to conditions: 2 µM.

A short description of series [11]: The drug is tested on WLS-010 corresponding to human gut metagenome with ENA study accession number: PRJEB37062 and ENA sample accession number: ERS12561743 for biotransformation under anaerobic condition. The drug concentrations were measured over 9 timepoints collected between 0 and 24 hours of incubation by liquid-chromatography-coupled mass spectrometry (LC–MS). As to conditions: 2 µM.

The conditions of series [12]: human gut metagenome, 24 h, 2 µM.
For series [13] the following is noted: human gut metagenome, 24 h, 2 µM. This is another data set of the same source.
The conditions of series [14]: human gut metagenome, 24 h, 2 µM. The source holds these as a separate data set.
For series [15] the following is noted: human gut metagenome, 24 h, 2 µM. This is another data set of the same source.
For series [16] the following is noted: human gut metagenome, 24 h, 2 µM. The source holds these as a separate data set.
The conditions of series [17]: human gut metagenome, 24 h, 2 µM. This is another data set of the same source.
For series [18] the following is noted: human gut metagenome, 24 h, 2 µM. The source holds these as a separate data set.
The conditions of series [19]: human gut metagenome, 24 h, 2 µM. The source holds these as a separate data set.
The conditions of series [20]: human gut metagenome, 24 h, 2 µM. This is another data set of the same source.
Note: call rule not given here.

On to `CCCCCOC(=O)Nc1nc(=O)n([C@@H]2O[C@H](C)[C@@H](O)[C@H]2O)cc1F` [CAPECITABINE], for which the “Bacterial Biotransformation” value in series [1] is recorded as “Compound NOT metabolized”; in series [2], “Compound NOT metabolized”; in series [3] it was “Compound metabolized”; in series [4] it was “Compound metabolized”; in series [5] it was “Compound NOT metabolized”; in series [6], “Compound NOT metabolized”. The “Bacterial Biotransformation” value in [7], in series [8], in series [9], in [10], in [11] and in [12] was “Compound metabolized” throughout. Also, the “Bacterial Biotransformation” value in series [13] is “Compound metabolized”; in series [14] it was “Compound metabolized”; in [15], “Compound metabolized”; in [16] it was “Compound metabolized”; in series [17] it was “Compound NOT metabolized”; in series [18], “Compound metabolized”. The “Bacterial Biotransformation” value in series [19] and in series [20] was “Compound metabolized” throughout.

Take `Cc1ccc(-c2cc(C(F)(F)F)nn2-c2ccc(S(N)(=O)=O)cc2)cc1` [CELECOXIB]: the “Bacterial Biotransformation” value in series [1], in series [2], in series [3], in [4], in [5] and in series [6] was “Compound NOT metabolized” throughout. In addition, the “Bacterial Biotransformation” value is “Compound NOT metabolized” in [7]; “Compound NOT metabolized” in series [8]; “Compound NOT metabolized” in series [9]; “Compound metabolized” in [10]; “Compound metabolized” in series [11]; “Compound NOT metabolized” in series [12]. In addition, the “Bacterial Biotransformation” value in [13] is given as “Compound metabolized”; in [14], “Compound NOT metabolized”; in [15], “Compound NOT metabolized”; in series [16], “Compound metabolized”; in [17], “Compound NOT metabolized”; in [18] it was “Compound metabolized”. For the same compound, the “Bacterial Biotransformation” value in series [19] and in series [20] was “Compound metabolized” throughout.

As to `CN1C(=O)CCS(=O)(=O)C1c1ccc(Cl)cc1` (stereo not given) [CHLORMEZANONE], the “Bacterial Biotransformation” value in series [1], in series [2], in series [3], in series [4], in series [5] and in series [6] was “Compound NOT metabolized” each time. Also, the “Bacterial Biotransformation” value in series [7], in [8], in series [9], in series [10], in [11] and in series [12] was “Compound NOT metabolized” in each case. Moreover, the “Bacterial Biotransformation” value in [13], in series [14], in series [15], in series [16], in [17] and in [18] was “Compound NOT metabolized” each time. The “Bacterial Biotransformation” value in series [19] and in series [20] was “Compound NOT metabolized” throughout.

`Clc1ccc(Cn2c(CN3CCCC3)nc3ccccc32)cc1` [CLEMIZOLE]: the “Bacterial Biotransformation” value in series [1] is “Compound NOT metabolized”; in series [2], “Compound NOT metabolized”; in series [3], “Compound NOT metabolized”; in series [4], “Compound metabolized”; in series [5] it was “Compound NOT metabolized”; in [6], “Compound NOT metabolized”. In addition, the “Bacterial Biotransformation” value in series [7] is given as “Compound metabolized”; in series [8], “Compound metabolized”; in series [9] it was “Compound metabolized”; in series [10], “Compound NOT metabolized”; in series [11] it was “Compound NOT metabolized”; in [12] it was “Compound metabolized”. Moreover, the “Bacterial Biotransformation” value in [13] was “Compound metabolized”; in series [14], “Compound metabolized”; in series [15] it was “Compound metabolized”; in series [16], “Compound NOT metabolized”; in series [17], “Compound NOT metabolized”; in series [18], “Compound metabolized”. Also, the “Bacterial Biotransformation” value in series [19] is “Compound NOT metabolized”; in series [20], “Compound metabolized”.

For `CN1CCN(C2=Nc3cc(Cl)ccc3Nc3ccccc32)CC1` [CLOZAPINE], the “Bacterial Biotransformation” value in series [1], in series [2], in [3], in series [4], in series [5] and in series [6] was “Compound NOT metabolized” throughout. For the same compound, the “Bacterial Biotransformation” value in series [7] is listed as “Compound NOT metabolized”; in series [8] it was “Compound metabolized”; in series [9], “Compound metabolized”; in series [10], “Compound NOT metabolized”; in series [11], “Compound NOT metabolized”; in series [12], “Compound NOT metabolized”. Further, the “Bacterial Biotransformation” value in [13] is on record as “Compound metabolized”; in series [14], “Compound NOT metabolized”; in series [15], “Compound NOT metabolized”; in [16], “Compound NOT metabolized”; in series [17] it was “Compound NOT metabolized”; in [18] it was “Compound metabolized”. For the same compound, the “Bacterial Biotransformation” value in [19] and in series [20] was “Compound metabolized” in each case.

With `COc1cc2c(c(OC)c1OC)-c1ccc(OC)c(=O)cc1[C@@H](NC(C)=O)CC2` [COLCHICINE], the “Bacterial Biotransformation” value in [1] is “Compound NOT metabolized”; in [2], “Compound NOT metabolized”; in [3] it was “Compound NOT metabolized”; in series [4], “Compound metabolized”; in series [5], “Compound NOT metabolized”; in [6], “Compound NOT metabolized”. For the same compound, the “Bacterial Biotransformation” value in series [7] is on record as “Compound NOT metabolized”; in series [8], “Compound metabolized”; in [9] it was “Compound NOT metabolized”; in [10], “Compound metabolized”; in series [11], “Compound metabolized”; in series [12], “Compound NOT metabolized”. The “Bacterial Biotransformation” value in [13] is on record as “Compound NOT metabolized”; in series [14] it was “Compound NOT metabolized”; in series [15] it was “Compound metabolized”; in series [16], “Compound metabolized”; in series [17] it was “Compound NOT metabolized”; in [18] it was “Compound metabolized”. Further, the “Bacterial Biotransformation” value in series [19] and in series [20] was “Compound metabolized” in each case.
